{
  "source": "patent US7579371B2",
  "about": "“Methods of using [3.2.0] heterocyclic compounds and analogs thereof” (Nereus Pharmaceuticals, Inc., priority 2004, dated 2009)",
  "key": {"Caspase-3": {"system": "Caspase-3", "assay": "Caspase-3 activity assay in Jurkat cells", "type": "cell-based, human", "conditions": "EC50 concentration, 19 hours", "procedure": "Jurkat cells were plated at 2×10^6 cells/3 mL per well in a 6-well plate and incubated at 37° C., 5% (v/v) CO2 and 95% (v/v) humidity. […] Bhalla, et al., Blood 82:3133 (1993). […] Cells treated with 0.25% DMSO served as the negative control. The cells were collected by centrifugation and the media removed. Cell pellets were processed for the Caspase-3 activity assay as described in the manufacturer's protocol (EnzChek Caspase-3 Assay Kit from Molecular Probes (E-13183; see Appendix G, which form a part of this application and is also available at hypertext transfer protocol on the worldwide web at “probes.com.media/pis/mp13183.pdf.”. In brief, cell pellets were lysed on ice, mixed with the EnzChek Caspase-3 components in a 96-well plate, and then incubated in the dark for 30 minutes prior to reading fluorescence of cleaved benzyloxycarbonyl-DEVD-[…] using a Packard Fusion with λex=485 nm and λem=530 nm filters. Protein concentrations for lysates were determined using the BCA Protein Assay Kit (Pierce) and these values were used for normalization."}, "OVCAR-3": {"system": "OVCAR-3", "assay": "Cell growth inhibition assay (resazurin, 48 h)", "type": "cell-based, human", "conditions": "OVCAR-3, 48 h"}, "Cathepsin B": {"molecular_target": "Cathepsin B (Homo sapiens, UniProt P07858)", "assay": "Inhibition of Cathepsin B", "type": "biochemical"}},
  "data": [
    {"smiles": "C[C@@]12OC(=O)[C@]1([C@@H](O)[C@@H]1C=CCCC1)NC(=O)[C@@H]2CCCl", "note": "[Formula II-16, Salinosporamide A]", "values": [
      {"measurement": "Caspase-3 activity", "setting": "Caspase-3", "value": "activation of Caspase-3"},
      {"measurement": "EC50", "setting": "OVCAR-3; Homo sapiens", "value": 69, "unit": "nM"},
      {"measurement": "EC50", "setting": "OVCAR-3", "value": "49 ± 31", "unit": "nM"},
      {"measurement": "EC50", "setting": "Cathepsin B", "value": "> 200000", "unit": "nM"}
    ]}
  ]
}
